Laboratory results taken from patent US20080076762A1, “Novel 4-Aminopiperidine Derivatives” (priority 2004, published 2008).

Assays:
plasmepsin II = plasmepsin II (Plasmodium falciparum, UniProt Q8I6V3); assay: FRET assay for plasmepsin II; format: biochemical; settings: pH 5, 37° C., substrate M-2120 1 μM
Description: (§1) The Fluorescence Resonance Energy Transfer (FRET) Assay for Plasmepsin II & IV and Human Cathepsin D & E:
(§2) The assay conditions are selected according to reports in the literature.
(§3) The FRET assay is performed in white polysorp plates (Fluoronunc, cat no 264 572) at 37° C. with a final volume of 80 μl.
(§4) The assay buffer is composed of 50 mM sodium acetate pH 5, 12.5% (w/v) glycerol, and 0.1% (w/v) BSA. The reaction consists of the following components: 60 μl assay buffer, 4 μl inhibitor (in DMSO), 8 μl substrate (M-2120 from BACHEM) to a final concentration of 1 μM and 8 μl enzyme (plasmepsin II, plasmepsin IV or cathepsin E to a final amount of 0.015 μg/ml per assay tube, cathepsin D to a final amount of 0.05 μg/ml per assay tube). The inhibitor is pre-diluted in DMSO in a dilution plate and six concentrations are prepared in duplicate. The compounds are usually tested at a final concentration varying from 1 nM to 100 μM. The substrate is diluted using 50% DMSO-50% assay buffer and the enzyme using assay buffer. The mixtures are then incubated for 3 h at 37° C. and the fluorescence is determined at 1 and 3 hour with a FluoroStar Galaxy from BMG using excitation and emission filters of 355 and 520 nm, respectively.
(§5) Auto-fluorescence of all the test substances is determined in assay buffer in the absence of substrate and enzyme and this value is subtracted from the final signal.
(§6) The inhibitory activity of the compounds is expressed as IC50, which represents the concentration of compound that inhibits 50% of the maximal (uninhibited) enzyme activity.

plasmepsin IV = plasmepsin IV (Plasmodium falciparum, UniProt Q8IM16); assay: FRET assay for plasmepsin IV; format: biochemical; settings: pH 5, 37° C., substrate M-2120 1 μM
Description: as §1, §2, §3, §4, §5, §6

Chain of plasmepsin II (Q8I6V3 125-453): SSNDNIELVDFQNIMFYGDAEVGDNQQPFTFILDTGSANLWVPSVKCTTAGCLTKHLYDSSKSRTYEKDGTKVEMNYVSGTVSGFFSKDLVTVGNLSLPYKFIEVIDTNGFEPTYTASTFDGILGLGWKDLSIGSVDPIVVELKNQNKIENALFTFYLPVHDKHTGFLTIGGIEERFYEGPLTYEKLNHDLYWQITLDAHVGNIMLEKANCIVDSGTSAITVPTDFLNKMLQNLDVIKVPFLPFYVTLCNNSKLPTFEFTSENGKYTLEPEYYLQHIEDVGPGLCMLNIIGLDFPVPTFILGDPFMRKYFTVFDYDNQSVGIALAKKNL
Chain of plasmepsin IV (Q8IM16 122-449): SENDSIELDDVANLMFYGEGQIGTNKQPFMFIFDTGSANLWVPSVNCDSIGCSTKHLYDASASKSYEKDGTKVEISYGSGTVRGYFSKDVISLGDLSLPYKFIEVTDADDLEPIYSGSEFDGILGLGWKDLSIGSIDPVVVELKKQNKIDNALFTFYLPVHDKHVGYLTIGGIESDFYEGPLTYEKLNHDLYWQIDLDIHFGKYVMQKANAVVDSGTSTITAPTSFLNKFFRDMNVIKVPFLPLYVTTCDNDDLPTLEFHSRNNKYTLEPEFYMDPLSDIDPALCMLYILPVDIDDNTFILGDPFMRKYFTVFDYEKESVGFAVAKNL

Structure (SMILES) | IC50 (plasmepsin II) [nM] | IC50 (plasmepsin IV) [nM]
CCCCCc1ccc(C(=O)N(Cc2ccc(-c3ccc(C(=O)N4CCCCC4)cc3)cc2)C2CCN(CCC(C)C)CC2)nc1 [Example 163] | 10 | 635
CCCCCc1ccc(C(=O)N(Cc2ccc(-c3ccc(Cl)c(Cl)c3)o2)C2CCN(CCC(C)C)CC2)cc1 [Example 220, N-[5-(3,4-dichloro-phenyl)-furan-2-ylmethyl]-N-[1-(3-methyl-butyl)-piperidin-4-yl]-4-pentyl-benzamide] | 41 | 56
CCCCCc1ccc(C(=O)N(Cc2ccc(-c3cccc(C)c3)cc2)C2CCN(CCC(C)C)CC2)nc1 [Example 166, 5-Pentyl-pyridine-2-carboxylic acid (3′-methyl-biphenyl-4-ylmethyl)-[1-(3-methyl-butyl)-piperidin-4-yl]-amide] | 16 | 22
CCCCCc1ccc(C(=O)N(Cc2ccc(C(=O)NCc3c(F)cccc3F)cc2)C2CCN(CCC(C)C)CC2)nc1 [Example 223, 5-Pentyl-pyridine-2-carboxylic acid [4-(2,6-difluoro-benzylcarbamoyl)-benzyl]-[1-(3-methyl-butyl)-piperidin-4-yl]-amide] | 40 | 1110
CCCCCc1ccc(C(=O)N(Cc2ccc(N3CCSCC3)nc2)C2CCN(CCC(C)C)CC2)nc1 [Example 226] | 51 | 359
CCCCCc1ccc(C(=O)N(Cc2ccc(-c3ccc(C(=O)N4CCCCC4)cc3)cc2)C2CCN(CCC(C)C)CC2)s1 [Example 88] | 77 | –
